Key:
[1] = tested on: Weizenmehltau (Erysiphe graminis f.sp.tritici); test: Efficacy against wheat powdery mildew, protective spray on wheat seedlings cv. "Frühgold" (Beispiel 2); type: in vivo; conditions: inoculated 24 h after spray coating dried, visual rating after 7 days, concentration not given, untreated plants 80 % infested
Method: Beispiel 2: Wirksamkeit gegen Weizenmehltau
Blätter von in Töpfen gewachsenen Weizenkeimlingen der Sorte "Frühgold" wurden mit wäßriger Wirkstoffaufbereitung, die aus einer Stammlösung bestehend aus 10 % Wirkstoff, 63% Cyclohexanon und 27 % Emulgiermittel angesetzt wurde, bis zur Tropfnässe besprüht und 24 h nach dem Antrocknen des Spritzbelages mit Sporen des Weizenmehltaus (Erysiphe graminis f.sp.tritici) bestäubt. Die Versuchspflanzen wurden anschließend im Gewächshaus bei Temperaturen zwischen 20 und 22 °C und 75 bis 80 % relativer Luftfeuchtigkeit aufgestellt. Nach 7 Tagen wurde das Ausmaß der Mehltauentwicklung visuell in % der gesamten Blattfläche ermittelt.

[2] = tested on: Weizenmehltau (Erysiphe graminis forma specialis tritici); test: Efficacy against wheat powdery mildew, protective spray on wheat seedlings cv. "Kanzler" (Anwendungsbeispiel 1); type: in vivo; conditions: inoculated 24 h after spraying, rating after 7 days, untreated 80 %
From the text: Anwendungsbeispiel 1 - Wirksamkeit gegen Weizenmehltau
Blätter von in Töpfen gewachsenen Weizenkeimlingen der Sorte ? Kanzler" wurden mit wäßriger Wirkstoffaufbereitung, die aus einer Stammlösung bestehend aus 10 % Wirkstoff, 63 % Cyclohexanon und 27 % Emulgiermittel angesetzt wurde, bis zur Tropfnässe besprüht und 24 Stunden nach dem Antrocknen des Spritzbelages mit Sporen des Weizenmehltaus (Erysiphe graminis forma specialis tritici) bestäubt. Die Versuchspflanzen wurden anschließend im Gewächshaus bei Temperaturen zwischen 20 und 24°C und 60 bis 90 % relativer Luftfeuchtigkeit aufgestellt. Nach 7 Tagen wurde das Ausmaß der Mehltauentwicklung visuell in % Befall der gesamten Blattfläche ermittelt.

For `O=C(Cc1ccccc1)NC(=NOCC1CC1)c1c(Cl)ccc(F)c1Cl` [II.1, N-Phenylacetyl-2,6-dichlor-5-fluorbenzamid-[O-cyclopropylmethyl]oxim], the “Ausmaß der Mehltauentwicklung (Befall)” value [1] was “keinen Befall”, the “%-Befall der Blätter nach Applikation von ... ppm-haltiger wäßriger Wirkstoffaufbereitung” value ([2]; 16 ppm) was 0% and the “%-Befall der Blätter nach Applikation von ... ppm-haltiger wäßriger Wirkstoffaufbereitung” value ([2]; 63 ppm) was 0%.
